# In patent US20240279215A1 (Cytokinetics, Incorporated, priority 2022, published 2024):
# Target: human NAMPT (Homo sapiens (Human), UniProt P43490)
# Experiment: NMN fluorescence biochemical assay (human recombinant NAMPT enzyme assay)
# How it was run: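 Activation of recombinant human NAMPT (6 nM) was tested with 2.5 mM ATP, 20 μM PRPP and 150 μM nicotinamide in 50 mM HEPES pH 7.2 for 60 min at ambient temperature. NMN was derivatized with acetophenone/KOH/formic acid and read by fluorescence (355/460 nm) after 40 min.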
# Chain of human NAMPT (P43490 whole entry): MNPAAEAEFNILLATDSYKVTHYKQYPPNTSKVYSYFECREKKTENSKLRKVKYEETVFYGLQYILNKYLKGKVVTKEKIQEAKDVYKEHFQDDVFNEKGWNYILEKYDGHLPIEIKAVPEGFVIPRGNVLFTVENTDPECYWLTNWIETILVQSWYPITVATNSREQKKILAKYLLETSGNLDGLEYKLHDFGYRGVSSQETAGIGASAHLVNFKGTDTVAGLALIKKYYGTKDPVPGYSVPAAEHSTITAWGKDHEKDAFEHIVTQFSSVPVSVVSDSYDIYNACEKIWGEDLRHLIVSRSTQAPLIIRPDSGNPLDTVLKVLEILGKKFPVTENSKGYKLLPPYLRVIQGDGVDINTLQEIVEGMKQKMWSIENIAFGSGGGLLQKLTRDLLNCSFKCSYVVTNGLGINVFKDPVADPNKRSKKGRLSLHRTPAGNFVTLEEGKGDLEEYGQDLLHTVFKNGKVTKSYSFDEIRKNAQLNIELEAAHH
SMILES,AC1.4 Human [µM],EC50 [µM]
"CN(C)C(=O)N1CC2(CC(Cc3ccc(NC(=O)OCc4cnco4)cc3F)C2)C1 [Compound 398, oxazol-5-ylmethyl (4-((2-(dimethylcarbamoyl)-2-azaspiro[3.3]heptan-6-yl)methyl)-3-fluorophenyl)carbamate]",0.08,3.29
"Cc1ncoc1C(=O)NCc1ccc(NC(=O)OCc2ccc(Cl)cc2)cc1 [Compound 209, (4-chlorophenyl)methyl N-(4-{[(4-methyl-1,3-oxazol-5-yl)formamido]methyl}phenyl)carbamate]",1.88,21.6
"CC(C)c1ccc(C(=O)N[C@@H](C)c2ccc(NC(=O)OCc3ccc(Cl)cc3)cc2)cn1 [Compound 163, (4-chlorophenyl)methyl N-{4-[(1S)-1-[(6-isopropylpyridin-3-yl)formamido]ethyl]phenyl}carbamate]",1.37,0.68
"Cc1cnc(C(=O)N[C@@H](C)c2ccc(NC(=O)OCc3ccc(Cl)cc3)cc2)o1 [Compound 267, 4-chlorobenzyl (S)-(4-(1-(5-methyloxazole-2-carboxamido)ethyl)phenyl)carbamate]",3.04,36.5
"CC(C)C(=O)N1CCC(Cc2ccc(NC(=O)OCc3ccc(Cl)cc3)cc2)CC1 [Compound 87, 4-chlorobenzyl (4-((1-isobutyrylpiperidin-4-yl)methyl)phenyl)carbamate]",0.68,1.75
"CN1CC[C@H](NCc2ccc(NC(=O)OCc3ccc(Cl)cc3)cc2)C1=O [Compound 228, 4-chlorobenzyl (S)-(4-(((1-methyl-2-oxopyrrolidin-3-yl)amino)methyl)phenyl)carbamate]",2.11,21.4
"C[C@H]1CCCN(C(=O)Cc2ccc(NC(=O)OCc3ccc(Cl)cc3)cc2)C1 [Compound 261, (4-chlorophenyl)methyl N-(4-{2-[(3S)-3-methylpiperidin-1-yl]-2-oxoethyl}phenyl)carbamate]",2.83,9.46
"CN1CCN(C(=O)Cc2ccc(NC(=O)OCc3ccc(Cl)cc3)cc2)C2CC21 (stereo not shown) [Compound 178, 4-chlorobenzyl (4-(2-(5-methyl-2,5-diazabicyclo[4.1.0]heptan-2-yl)-2-oxoethyl)phenyl)carbamate]",1.50,14.7
"O=C(Nc1ccc(CC2CCN(S(=O)(=O)N3CCC3)CC2)cc1)OCc1cnco1 [Compound 465, oxazol-5-ylmethyl (4-((1-(azetidin-1-ylsulfonyl)piperidin-4-yl)methyl)phenyl)carbamate]",0.14,7.25
"O=C(Nc1ccc(CC(=O)N2CCC(O)CC2)cc1)OCc1ccc(Cl)cc1 [Compound 119, (4-chlorophenyl)methyl N-{4-[2-(4-hydroxypiperidin-1-yl)-2-oxoethyl]phenyl}carbamate]",0.95,21.7
"CS(=O)(=O)N1CCN(Cc2ccc(NC(=O)OCc3ccc(Cl)cc3)cc2)CC1 [Compound 107, (4-chlorophenyl)methyl N-{4-[(4-methanesulfonylpiperazin-1-yl)methyl]phenyl}carbamate]",0.89,10.8
"Cc1noc(C(=O)NCc2ccc(NC(=O)OCc3ccc(Cl)cc3)cc2)c1C [Compound 140, (4-chlorophenyl)methyl N-(4-{[(3,4-dimethyl-1,2-oxazol-5-yl)formamido]methyl}phenyl)carbamate]",1.15,4.51
"C[C@H](NC(=O)C1CC2(C1)CC(F)(F)C2)c1ccc(NC(=O)OCc2cnco2)cc1 [Compound 22, 1,3-oxazol-5-ylmethyl N-{4-[(1S)-1-({6,6-difluorospiro[3.3]heptan-2-yl}formamido)ethyl]phenyl}carbamate]",0.32,10.1
O=C(Nc1ccc(Cc2ccccc2)cc1)OCc1ccc(Cl)cc1 [Compound 307],5.02,5.55
"O=C(Nc1ccc(CC2CC3(C2)CN(C2COC2)C3)c(F)c1)OCc1cnco1 [Compound 397, oxazol-5-ylmethyl (3-fluoro-4-((2-(oxetan-3-yl)-2-azaspiro[3.3]heptan-6-yl)methyl)phenyl)carbamate]",0.98,42.6
"COc1cc(C(=O)N[C@@H](C)c2ccc(NC(=O)OCc3ccc(Cl)cc3)cc2)n(C)n1 [Compound 95, (4-chlorophenyl)methyl N-(4-[(1S)-1-[(5-methoxy-2-methylpyrazol-3-yl)formamido]ethyl]phenyl}carbamate]",0.75,3.11
C[C@H](NC(=O)c1cc(C(F)F)nn1C)c1ccc(NC(=O)OCc2ccc(Cl)cc2)cc1 [Compound 259],2.75,13.9
"CS(=O)(=O)N1CCC(Cc2ccc(NC(=O)OCc3cnco3)cc2F)CC1 [Compound 448, oxazol-5-ylmethyl (3-fluoro-4-((1-(methylsulfonyl)piperidin-4-yl)methyl)phenyl)carbamate]",0.13,4.5

SMILES,AC1.4 Human [µM],EC50 [µM]
"Cc1nc(C)c(C(=O)N(C)Cc2ccc(NC(=O)OCc3ccc(Cl)cc3)cc2)o1 [Compound 182, (4-chlorophenyl)methyl N-(4-{[1-(2,4-dimethyl-1,3-oxazol-5-yl)-N-methylformamido]methyl}phenyl)carbamate]",1.54,11
"CN1CCC(C(=O)NCc2ccc(NC(=O)OCc3ccc(Cl)cc3)cc2)CC1=O (stereo not shown) [Compound 124, (4-chlorophenyl)methyl N-(4-{[(1-methyl-2-oxopiperidin-4-yl)formamido]methyl}phenyl)carbamate]",0.98,15.3
"Cc1ccc(Cc2ccc(NC(=O)OCc3cnco3)cc2)cn1 [Compound 51, oxazol-5-ylmethyl (4-((6-methylpyridin-3-yl)methyl)phenyl)carbamate]",0.50,40.3
"COC(=O)N1CCC(Cc2ccc(NC(=O)OCc3ccc(Cl)cc3)cc2)CC1 [Compound 98, methyl 4-(4-((((4-chlorobenzyl)oxy)carbonyl)amino)benzyl)piperidine-1-carboxylate]",0.78,1.49
"Cc1cc(C(=O)N[C@@H](C)c2ccc(NC(=O)OCc3ccc(Cl)cc3)cc2)n(C)n1 [Compound 139, (4-chlorophenyl)methyl N-{4-[(1S)-1-[(2,5-dimethylpyrazol-3-yl)formamido]ethyl]phenyl}carbamate]",1.11,13.1
"CS(=O)(=O)N1CC2CC(C1)C2Cc1ccc(NC(=O)OCc2cnco2)cc1 (stereo not shown) [Compound 434, oxazol-5-ylmethyl (4-((3-(methylsulfonyl)-3-azabicyclo[3.1.1]heptan-6-yl)methyl)phenyl)carbamate]",0.06,2.11
"CCc1cc(C(=O)N[C@@H](C)c2ccc(NC(=O)OCc3ccc(Cl)cc3)cc2)n(C)n1 [Compound 137, (4-chlorophenyl)methyl N-{4-[(1S)-1-[(5-ethyl-2-methylpyrazol-3-yl)formamido]ethyl]phenyl}carbamate]",1.11,3.83
"O=C(Nc1ccc(CC(=O)N2CCN(CC(F)F)CC2)cc1)OCc1ccc(Cl)cc1 [Compound 282, (4-chlorophenyl)methyl N-(4-{2-[4-(2,2-difluoroethyl)piperazin-1-yl]-2-oxoethyl}phenyl)carbamate]",3.57,19.1
"Cc1ccc(N(C)C(=O)Cc2ccc(NC(=O)OCc3ccc(Cl)cc3)cc2)cn1 [Compound 264, (4-chlorophenyl)methyl N-(4-{[methyl(6-methylpyridin-3-yl)carbamoyl]methyl}phenyl)carbamate]",2.93,19.7
"CC(C)C(=O)N1CC2(CC(c3ccc(NC(=O)OCc4cnco4)cc3)C2)C1 [Compound 357, oxazol-5-ylmethyl (4-(2-isobutyryl-2-azaspiro[3.3]heptan-6-yl)phenyl)carbamate]",1.09,39.9
"CC(C)(C)OC(=O)N1CC(OCc2ccc(NC(=O)OCc3ccc(Cl)cc3)cc2)C1 [Compound 288, tert-butyl 3-{[4-({[(4-chlorophenyl)methoxy]carbonyl}amino)phenyl]methoxy}azetidine-1-carboxylate]",3.88,3.45
"O=C(Cc1ccc(NC(=O)OCc2ccc(Cl)cc2)cc1)NCc1cnccn1 [Compound 300, (4-chlorophenyl)methyl N-(4-{[(pyrazin-2-ylmethyl)carbamoyl]methyl}phenyl)carbamate]",4.81,26.4
"Cc1ccc(Cc2ccc(NC(=O)OCc3ccncc3)cc2)cn1 [Compound 186, pyridin-4-ylmethyl (4-((6-methylpyridin-3-yl)methyl)phenyl)carbamate]",1.61,3.38
"CN(C)S(=O)(=O)N1CCC(c2ccc(NC(=O)OCc3cnco3)cc2F)CC1 [Compound 416, oxazol-5-ylmethyl (4-(1-(N,N-dimethylsulfamoyl)piperidin-4-yl)-3-fluorophenyl)carbamate]",0.07,2.58
"O=C(Nc1ccc(CN2CCN(c3ncccn3)CC2)cc1)OCc1ccc(Cl)cc1 [Compound 73, 4-chlorobenzyl (4-((4-(pyrimidin-2-yl)piperazin-1-yl)methyl)phenyl)carbamate]",0.62,1.76
"O=C(Nc1ccc(CC(=O)N2CCC[C@@H](O)C2)cc1)OCc1ccc(Cl)cc1 [Compound 237, (4-chlorophenyl)methyl N-(4-{2-[(3R)-3-hydroxypiperidin-1-yl]-2-oxoethyl}phenyl)carbamate]",2.25,32.3
"CCC(=O)N1CCC(c2ccc(NC(=O)OCc3cnco3)cc2)CC1 [Compound 430, oxazol-5-ylmethyl (4-(1-propionylpiperidin-4-yl)phenyl)carbamate]",0.11,19.8
